From US20080187508A1, “Treatment of Golmerular Basement Membrane Disease Involving Matrix Metalloproteinase-12” (BOYS TOWN NATIONAL RESEARCH HOSPITAL, priority 2004, published 2008)
Entries after “also recorded” stand apart in the source; their conditions may differ.

Assays:
MMP-3 mRNA = assay: real time PCR of glomerular RNA of propagermanium-treated Alport mice: MMP-3; format: in vivo, mouse; conditions: propagermanium 10 mg/kg oral gavage once daily from 5 to 7 weeks of age
Method: (§1) Isolation of mouse glomeruli was performed as described by Takemoto et al., (Am. J. Pathol. (2002)161, 799-805). The procedure involves cardiac perfusion with deactivated […] Dynabeads (Dynal Biotech, Oslo, Sweden), followed by collagenase digestion and glomerular isolation using a magnet.
(§2) Total RNA samples were treated with RNase-free DNase I (Gibco BRL, USA) at 37° C. for 1 hour (hr) in order to remove any contaminating genomic DNA before reverse transcription (RT). Total RNA was reverse-transcribed by using Superscript II (GIBCO BRL) with oligo dt primers. To ensure that the quantitation of MMP transcripts in serial samples was not affected by differences in the amount of RNA added, integrity of RNA, or sample to sample differences in levels of RT-PCR inhibition, an internal control reaction targeting the GAPDH gene was run in multiplex with each reaction, and used to normalize results for MMP transcripts. […] The data were analyzed using comparative threshold cycle (CT) method. The mRNA quantity for the control is expressed as 1× sample and all other quantities from Alport samples are expressed as fold difference relative to the controls. No measurable fluorescence signal was detected in repeated RT-PCR runs in which the reverse transcriptase was omitted from the reaction mixture. […]

Alport mice [1] = assay: transmission electron microscopy of glomerular basement membrane of treated Alport mice; format: in vivo, mouse
Method: The Alport mouse model has been described (Cosgrove et al. (1996) Genes Dev. 10, 2981-2992). The control mice used were normal for both collagen α3(IV) alleles, and are a product of double heterozygote crosses for the Alport mutation. The use of animals in this study was performed in accordance with an approved institutional IACUC protocol. Extreme care was taken to minimize pain and discomfort suffered by the mice. MMP inhibitors were administered between 4 and 7 weeks of age. All drugs were freshly prepared prior to administration. BAY 129566 was emulsified in suspension with 0.5% carboxymethyl cellulose and 4 mg given once a day by oral gavage. MMI-270 was solubilized in 0.9% saline and administered by I.P. injection (50 μg/g body weight) once a day. Transmission electron microscopy was performed as previously described (Cosgrove et al., 1996, Genes Dev. 10, 2981-2992). Ultrastructural localization studies of type IV collagen were performed essentially as previously described (Bhattacharya et al., 2002). Kidneys from 7-week-old control and Alport mice were fixed by heart perfusion with 2% paraformaldehyde in PBS, and post-fixed in this same solution overnight. Ultrathin (70 nm) sections were reacted for 4 hours at room temperature with goat anti-collagen IV antibodies (Southern Biotechnology, Birmingham, Ala.). After six 10 minute washes in PBS, specimen were reacted for 2 hours at room temperature with 10 nanometers (nm) gold-conjugated anti-rabbit antibodies (Vector Laboratories, Burlingame, Calif.). Grids were washed as before, air-dried, counterstained with uranyl acetate, and examined using transmission electron microscopy. Propagermanium (3-oxygemylpropinic acid polymer, Sanwa Kagaku Kenkyusho Co., Nagoya, Japan) was administered orally (10 milligrams per kilogram (mg/kg) in 1% gelatin) by gavage once daily starting at 5 weeks of age, and kidneys harvested at 7 weeks of age. Three animals per group, Alport mice and control litter mates, gavaged with drug or vehicle only, were analyzed. […] Proteolytic degradation of the GBM in Alport syndrome might underlie the progressive irregular GBM damage and podocyte foot process effacement. Type IV collagen from Alport kidneys is more susceptible to proteolytic degradation in vitro than type IV collagen from healthy kidneys (Kalluri et al. (1997) J. Clin. Invest. 99, 2470-2478, presumably owing to the reduced number of interchain disulfide crosslinks (Gunwar et al. (1998) J. Biol. Chem. 273, 8767-8775).

MMP-12 mRNA = assay: real time PCR of glomerular RNA of propagermanium-treated Alport mice: MMP-12; format: in vivo, mouse; conditions: propagermanium 10 mg/kg oral gavage once daily from 5 to 7 weeks of age, 50-fold in vehicle-treated
Method: as §1, §2

MMP-9 mRNA = assay: real time PCR of glomerular RNA of propagermanium-treated Alport mice: MMP-9; format: in vivo, mouse; conditions: propagermanium 10 mg/kg oral gavage once daily from 5 to 7 weeks of age
Method: as §1, §2

Alport mice [2] = assay: immunofluorescence of kidney cryosections (fibronectin, collagen IV α1/α2) of treated Alport mice; format: in vivo, mouse; conditions: Alport mice treated from 4 to 7 weeks of age; MMI-270 50 μg/g I.P., BAY 129566 4 mg once daily oral gavage; fibronectin and collagen IV α1/α2 immunostaining
Method: The Alport mouse model has been described (Cosgrove et al. (1996) Genes Dev. 10, 2981-2992). The control mice used were normal for both collagen α3(IV) alleles, and are a product of double heterozygote crosses for the Alport mutation. The use of animals in this study was performed in accordance with an approved institutional IACUC protocol. Extreme care was taken to minimize pain and discomfort suffered by the mice. MMP inhibitors were administered between 4 and 7 weeks of age. All drugs were freshly prepared prior to administration. BAY 129566 was emulsified in suspension with 0.5% carboxymethyl cellulose and 4 mg given once a day by oral gavage. MMI-270 was solubilized in 0.9% saline and administered by I.P. injection (50 μg/g body weight) once a day.
Cryosections ([…]) of kidneys from 7-week-old normal and Alport mice were air dried, fixed by immersion in ice cold acetone, and subjected to immunohistochemical staining analysis using antibodies specific for MMP-3 (rabbit polyclonal anti-human MMP-3, a gift from Dr. Z. Gunza-Smith, Miami, Fla., used at 1:200 dilution), MMP-12 (rabbit polyclonal antibody against mouse MMP-12, kindly provided by Yoshikatsu Kaneko, used at 1:100 dilution), type IV collagen α1/2 chains (rabbit polyclonal against mouse type IV collagen, Biodesign, Inc., Saco, Me., used at 1:200 dilution), fibronectin (rabbit polyclonal against human plasma fibronectin, Sigma Chemical Co., St. Louis, Mo., used at 1:200). Anti-CD31 antibodies were directly conjugated to Alexa 568 (Molecular Probes, Eugene Oreg.) and purchased from Immunotech (Marseille, France). […] Images were collected using a Cytovision Ultra Image analysis system interfaced with an Olympus BH-2 fluorescence microscope.
To assess the effect of these two compounds on Alport renal disease progression, Alport mice were administered either MMI 270 or BAY 129566 from 4 to 7 weeks of age. […] Cryosections were analyzed by immunofluorescence microscopy to assess for the degree of glomerular and tubulointerstitial damage using antibodies specific for collagen IV α1 and α2 chains, and fibronectin.

MMP-12 = MMP-12 (Homo sapiens, UniProt P39900); conditions: listed as BAY-12-9566; cited from earlier work
MMP-14 = MMP-14 (Homo sapiens, UniProt P50281); conditions: listed as BAY 129566; cited from earlier work
MMP-9 = MMP-9 (Homo sapiens, UniProt P14780); conditions: listed as BAY 129566; cited from earlier work
MMP-2 = biological target: T1, MMP-2 (Homo sapiens, UniProt P08253); conditions: listed as BAY 129566; cited from earlier work
T1 sequence (P08253 110-660): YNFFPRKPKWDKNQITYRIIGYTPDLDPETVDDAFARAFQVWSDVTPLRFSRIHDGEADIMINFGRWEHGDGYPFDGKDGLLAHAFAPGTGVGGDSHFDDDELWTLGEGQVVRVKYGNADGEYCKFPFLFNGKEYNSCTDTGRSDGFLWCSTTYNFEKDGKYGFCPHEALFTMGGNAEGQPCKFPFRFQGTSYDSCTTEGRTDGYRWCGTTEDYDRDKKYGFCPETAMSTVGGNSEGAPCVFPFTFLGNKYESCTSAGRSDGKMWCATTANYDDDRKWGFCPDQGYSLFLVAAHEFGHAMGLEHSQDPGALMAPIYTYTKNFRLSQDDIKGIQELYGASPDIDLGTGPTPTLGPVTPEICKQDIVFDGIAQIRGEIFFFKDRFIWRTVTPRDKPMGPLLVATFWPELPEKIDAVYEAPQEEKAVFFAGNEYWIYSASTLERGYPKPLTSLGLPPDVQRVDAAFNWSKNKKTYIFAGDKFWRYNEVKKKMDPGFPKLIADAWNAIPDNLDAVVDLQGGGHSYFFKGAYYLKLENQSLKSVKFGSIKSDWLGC

MMP-3 = MMP-3 (Homo sapiens, UniProt P08254); conditions: listed as BAY 129566; cited from earlier work
Alport mice [3] = conditions: cited from earlier work

Sequence of MMP-9 (P14780 94-707, species assumed): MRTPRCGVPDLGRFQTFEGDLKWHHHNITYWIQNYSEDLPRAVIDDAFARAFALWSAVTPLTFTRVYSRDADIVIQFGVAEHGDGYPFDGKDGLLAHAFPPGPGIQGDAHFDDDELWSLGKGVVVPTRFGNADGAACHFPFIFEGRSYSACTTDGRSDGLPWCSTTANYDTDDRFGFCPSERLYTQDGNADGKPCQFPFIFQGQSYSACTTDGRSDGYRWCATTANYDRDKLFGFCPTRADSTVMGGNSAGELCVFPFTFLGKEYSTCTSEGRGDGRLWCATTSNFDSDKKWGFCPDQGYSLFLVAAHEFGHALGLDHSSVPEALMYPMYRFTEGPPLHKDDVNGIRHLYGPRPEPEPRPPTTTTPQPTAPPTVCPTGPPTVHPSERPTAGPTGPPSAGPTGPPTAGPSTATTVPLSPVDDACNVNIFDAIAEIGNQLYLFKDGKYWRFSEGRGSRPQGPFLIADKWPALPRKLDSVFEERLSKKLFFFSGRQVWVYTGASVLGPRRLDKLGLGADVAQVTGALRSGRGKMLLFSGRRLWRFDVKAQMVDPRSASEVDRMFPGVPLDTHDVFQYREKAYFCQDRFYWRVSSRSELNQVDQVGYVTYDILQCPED
Sequence of MMP-12 (P39900 106-470, species assumed): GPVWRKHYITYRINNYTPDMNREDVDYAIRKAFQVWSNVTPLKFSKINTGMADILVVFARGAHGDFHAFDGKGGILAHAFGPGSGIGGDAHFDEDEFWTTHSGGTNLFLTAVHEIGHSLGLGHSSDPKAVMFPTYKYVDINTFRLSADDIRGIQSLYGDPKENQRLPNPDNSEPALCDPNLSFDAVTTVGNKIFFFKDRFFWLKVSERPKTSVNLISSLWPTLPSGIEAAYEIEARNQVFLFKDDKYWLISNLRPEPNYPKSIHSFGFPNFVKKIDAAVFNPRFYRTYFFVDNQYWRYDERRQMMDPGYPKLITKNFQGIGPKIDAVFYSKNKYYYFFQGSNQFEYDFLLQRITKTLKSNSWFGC
Sequence of MMP-3 (P08254 100-477, species assumed): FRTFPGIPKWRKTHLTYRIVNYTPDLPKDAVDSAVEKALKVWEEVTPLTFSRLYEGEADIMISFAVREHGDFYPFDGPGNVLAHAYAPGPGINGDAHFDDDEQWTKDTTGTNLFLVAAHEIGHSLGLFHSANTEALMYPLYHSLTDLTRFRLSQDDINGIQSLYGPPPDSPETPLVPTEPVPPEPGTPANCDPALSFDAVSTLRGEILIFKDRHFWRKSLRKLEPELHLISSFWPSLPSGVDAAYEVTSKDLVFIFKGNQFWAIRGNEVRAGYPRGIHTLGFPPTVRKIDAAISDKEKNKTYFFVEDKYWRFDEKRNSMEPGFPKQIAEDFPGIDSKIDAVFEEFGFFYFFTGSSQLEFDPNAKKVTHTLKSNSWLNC

## 3-oxygermylpropionic acid [propagermanium]
MMP-3 mRNA
  induction of MMP-3 mRNA in glomeruli: unaffected
Alport mice [1]; Alport mice, propagermanium 10 mg/kg oral gavage once daily from 5 to 7 weeks of age, transmission electron microscopy
  glomerular basement membrane architecture: restores normal GBM architecture
MMP-12 mRNA
  MMP-12 mRNA induction in glomeruli relative to normal controls: 6 fold
MMP-9 mRNA
  induction of MMP-9 mRNA in glomeruli: unaffected

## O=C(C[C@H](CSc1ccccc1)C(=O)O)c1ccc(-c2ccc(Cl)cc2)cc1 [BAY 12-9566]
Alport mice [1]; Alport mice treated with MMP inhibitor from 4 to 7 weeks of age, electron microscopy
  glomerular basement membrane architecture: no effect
Alport mice [2]
  glomerular and tubulointerstitial (renal) disease progression: same degree of renal pathology as untreated Alport mice; also recorded: no obvious effect; also recorded: did not significantly affect; also recorded: no improvement
MMP-12
  MMP inhibitory effect, MMP-12: does not
MMP-14
  MMP inhibitory effect, MMP-14: inhibits
MMP-9
  MMP inhibitory effect, MMP-9: inhibits
MMP-2
  MMP inhibitory effect, MMP-2: inhibits
MMP-3
  MMP inhibitory effect, MMP-3: inhibits

## CCOC(=O)[C@H](CCc1ccccc1)N[C@@H](C)C(=O)N1[C@H](C(=O)O)C[C@@H]2CCC[C@@H]21 [Ramipril]
Alport mice [3]
  lifespan: doubles
